According to the supplement of paper PMC8671470:

Legend:
Conditions in all cases: 72 h
HL-60 [1] = assay: cell viability (% survival relative to DMSO control); higher = less cytotoxic
How it was run: (§1)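 A rescreen of the full library used HL-60 cells in RPMI 1640 with 10% FBS on 384-well plates, run in duplicate at five tenfold concentrations (1–10,000 nM). Each screen included DMSO or 100 nM of one of three metabolic inhibitors and ran 72 h at 37 °C, 5% CO2. CellTiter-Glo viability was scaled between DMSO and 10 μM proteasome-inhibitor wells. Any area under the curve comes from four-parameter log-logistic fits with drc and PharmacoGx.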

[2] = tested on: myeloid leukemia patient primary cells Pat.10; assay: cell viability (% survival relative to DMSO control); higher = less cytotoxic
How it was run: (§2)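 Seventy compounds were pre-printed on 384-well plates at five tenfold concentrations between 1 and 10,000 nM, in duplicate. Thawed mononuclear cells purified by Ficoll from AML or CML patients were added at 10,000 cells/well in RPMI 1640 with 10% FBS for 72 h. Viability by CellTiter-Glo was normalised to DMSO and 10 μM proteasome-inhibitor wells. Where stated, area under the curve was taken from log-logistic fits made with the drc and PharmacoGx R packages, each fit having four parameters.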

[3] = tested on: myeloid leukemia patient primary cells Pat.11; assay: as above
How it was run: as §2

[4] = tested on: myeloid leukemia patient primary cells Pat.12; assay: as above
How it was run: as §2

[5] = tested on: myeloid leukemia patient primary cells Pat.13; assay: as above
How it was run: as §2

[6] = tested on: myeloid leukemia patient primary cells Pat.14; assay: as above
How it was run: as §2

[7] = tested on: myeloid leukemia patient primary cells Pat.15; assay: as above
How it was run: as §2

[8] = tested on: myeloid leukemia patient primary cells Pat.1; assay: as above
How it was run: as §2

[9] = tested on: myeloid leukemia patient primary cells Pat.2; assay: as above
How it was run: as §2

[10] = tested on: myeloid leukemia patient primary cells Pat.3; assay: as above
How it was run: as §2

[11] = tested on: myeloid leukemia patient primary cells Pat.4; assay: as above
How it was run: as §2

[12] = tested on: myeloid leukemia patient primary cells Pat.5; assay: as above
How it was run: as §2

[13] = tested on: myeloid leukemia patient primary cells Pat.6; assay: as above
How it was run: as §2

[14] = tested on: myeloid leukemia patient primary cells Pat.7; assay: as above
How it was run: as §2

[15] = tested on: myeloid leukemia patient primary cells Pat.8; assay: as above
How it was run: as §2

[16] = tested on: myeloid leukemia patient primary cells Pat.9; assay: as above
How it was run: as §2

HL-60 [17] = assay: area under dose-response curve (viability, 1 nM-10 uM) (fraction (0-1)); higher = more sensitive
How it was run: as §1

CCN(CC)C(=S)SSC(=S)N(CC)CC [Disulfiram]
cell viability [%], HL-60 [1]
Conditions	0.001 µM	0.01 µM	0.1 µM	1 µM	10 µM
co-treatment: AZD3965 100 nM	104	101	98.7	96.7	101
co-treatment: DMSO vehicle	100.9	100.4	105	94	98.66
co-treatment: GSK2194069 100 nM	100	95.7	102	93.1	102
co-treatment: pictilisib 100 nM	105.2	86.4	107	71.25	102

Conditions	area under dose-response curve, co-treatment: AZD3965 100 nM	area under dose-response curve, co-treatment: DMSO vehicle	area under dose-response curve, co-treatment: GSK2194069 100 nM	area under dose-response curve, co-treatment: pictilisib 100 nM	cell viability, 1 nM [%]	cell viability, 10 nM [%]	cell viability, 100 nM [%]	cell viability, 1000 nM [%]	cell viability, 10000 nM [%]
HL-60 [17]	< 0.0301	< 0.0301	< 0.0301	< 0.0301	–	–	–	–	–
[2]	–	–	–	–	85	72.2	47.8	56.6	> 100
[3]	–	–	–	–	99.9	99.2	98.7	2.1	3.25
[4]	–	–	–	–	98	95.2	54	3.19	< 0
[5]	–	–	–	–	94.8	91	79.5	< 0	4.12
[6]	–	–	–	–	89.1	93.9	87.8	60.5	21.4
[7]	–	–	–	–	96.8	87.7	9.1	1.3	0.0644
[8]	–	–	–	–	95	82.2	79.8	1.11	0.116
[9]	–	–	–	–	95.6	93.9	39.1	0.978	3.7
[10]	–	–	–	–	> 100	99.2	99.7	84.6	1.56
[11]	–	–	–	–	94.9	90.7	96.1	0.934	6.79
[12]	–	–	–	–	76.6	76.8	74.5	26.1	5.84
[13]	–	–	–	–	99.6	94.6	80.5	2.26	4.13
[14]	–	–	–	–	83.4	86.8	61.1	71.7	< 0
[15]	–	–	–	–	61.6	76.7	39.6	0.473	1.14
[16]	–	–	–	–	71.8	> 100	86.3	33.6	20.9
